The subject of assay [1] is U-87MG cells. Put plainly: Live-cell imaging (HoloMonitor) of cell division and re-fusion of daughter cells. Type of assay: cell-based, human. Details: dose or concentration left out as unconfirmed. To be noted: 24 h incubation. On the procedure:
Cells were seeded in a 6-well plates, treated with D-Δ(1-18)N-Ter-Antp peptide for 24 h, and monitored with the Holomonitor live cell imaging system (Holographic Imaging, Lund, Sweden) for 24 h at 37 °C and 5% CO2 or with a microscope (LX2-KSP; Olympus, Shinjuku, Tokyo, Japan), with images captured by a CCD camera.
Figure 8 D-Δ(1-18)N-Ter-Antp peptide induced apoptosis and altered cell division. (A) HeLa cells were treated with D-Δ1-18N-Ter-Antp (5 μM, 24 h) and monitored using a live-imaging microscope (HoloMonitor). The time course of cell division is presented. Division–fusion phase times are represented in relation to D-Δ(1-18)N-Ter-Antp administration time (T = 0). i. The cells are in a pre-division stage. ii. The cell divides into two cells. iii. The cell becomes partially fused. iv. The cells become fully fused into one large cell. v. Finally, they become an apoptotic cell. (B,C) HeLa cells incubated with the peptide (10 μM, 24 h) and then stained with anti-tubulin antibodies, followed by secondary anti-mouse-cy3 antibodies (red) followed by actin staining with Phalloidin-488 (green), nuclei stained with DAPI (blue) and visualized by confocal microscopy. Cells with divided nuclei that were connected or in a re-fused state are circled (C). (D) Schematic illustration of cell division phases of control and D-Δ(1-18)N-Ter-Antp peptide-treated cells.
Figure A1 Vedio S1. […]

Assay [2] relates to U-87MG cells. Briefly: Immunoblotting of protein expression in peptide-treated cells. Type of assay: cell-based, human. The conditions noted are these: 12 h. Here is the method:
U-87 MG cells were treated with the indicated concentrations of D-Δ(1-18)N-Ter-Antp peptide in serum-free DMEM for 6 h. Then cells were lysed in lysis buffer (100 mM Tris/HCl pH 8.0, 5% sodium dodecyl sulfate [SDS]), supplemented with a protease inhibitor cocktail (Calbiochem, San Diego, CA, USA). The lysates were vortexed and heated at 70 °C for 10 min. Finally, cell lysates were centrifuged (15,000× g, 10 min at 4 °C), and the protein concentration of the supernatant was determined according to the Lowry assay with a slight modification. Protein samples were stored at −80 °C until subsequent gel electrophoresis. Protein samples (20 μg) were resolved by SDS-polyacrylamide gel electrophoresis and immunoblotted using selected primary antibodies (sources and dilutions are listed in Table S1), followed by incubation with appropriate horseradish peroxidase (HRP)-conjugated secondary antibodies (Table S1). Proteins were detected using the EZ-ECL Enhanced Chemiluminescence Detection Kit (Biological Industries, Beit Haemek, Israel). Band intensities were analyzed with densitometry using FUSION-FX software (Vilber Lourmat, Collegien, France), and the values were normalized to β-actin.
Figure 3 The D-Δ(1-18)N-Ter-Antp peptide induced autophagy and cellular senescence and altered the expression of apoptosis-related proteins. (A,B) U-87MG cells were treated with the indicated concentrations of D-Δ(1-18)N-Ter-Antp peptide for 12 h and then were subjected to immunoblotting for caspase-9, AIF, Bcl-xL, Bcl-2, and Bax and the relative expression level was quantified (B). (C,D) U-87MG cells were treated with the indicated concentrations of D-Δ(1-18)N-Ter-Antp peptide for 12 h and then subjected to immunoblotting for the autophagy markers LC3-I and LC3-II (C) and LC3-II quantification (D). (E,F) U-87MG cells were treated with the indicated concentrations of D-Δ(1-18)N-Ter-Antp peptide for 12 h and then subjected to β-gal activity (blue). Mouse embryonic fibroblast cells at passage 10 (MEF-P10) served as a positive control of senescent cells. Quantification of β-gal staining intensity (F). Data are presented as the mean ± SD, n = 3, * p < 0.05; ** p < 0.01; *** p < 0.001 versus control group. NS, non-specific. The images were captured at 40× and two folds enlargement is shown.
Figure 4 The D-Δ(1-18)N-Ter-Antp induced the altered expression of metabolism and signaling-related proteins. (A,B) U-87MG cells were treated with the indicated concentrations of D-Δ(1-18)N-Ter-Antp peptide at the indicated concentration for 12 h and then subjected to immunoblot analyses of cell lysates for VDAC1, HK-I, ATPsyn5a, and citrate synthase (CS) (A). Quantification of the immunoblot (B). (C–E) Immunoblotting of the indicated proteins c-Jun, NF-κB-p65, p53, CDK2 and IkB-a (C) and their quantitative analysis (D,E). The results were from triplicates of different biological repeats (n = 3) and are presented as the means ± SEM. * p ≤ 0.05; ** p ≤ 0.01; *** p ≤ 0.001.

Where [3] appears, read: immunoblot normalized to β-actin, n = 3.

Take “19-FTKGYGFGL-26- RQIKIWFQNRRMKWKK [D-Δ(1-18)N-Ter-Antp]”: the “Percentage of cells with re-fusion of daughter cells” value in the assay on U-87MG cells [1] was 60–80%. The “Autophagy, appearance of LC3-II” value with U-87MG cells [2] (immunoblot for LC3-I and LC3-II) is on record as “induced”. In addition, in the assay with U-87MG cells [2] (setting [3]), the “Decrease of expression of IκBα” value stood at 2 fold, the “Decrease of expression of cyclin-dependent kinase 2 (CDK-2)” value turned out to be 2 fold, the “Enhanced expression of c-Jun” value was found to be 6 fold and the “Enhanced expression of nuclear factor kappa B (NF-κB p65)” value turned out to be 3.5 fold. For the same substance, the “Enhanced expression of p53” value with U-87MG cells [2] (setting [3]) is reported as 3 fold.
